Data: ChEMBL document CHEMBL4000203, “Green synthesis and anticancer potential of chalcone linked-1,2,3-triazoles” (Eur J Med Chem, 2017)

How the values were obtained:
MCF7 [1] = assay: Cytotoxicity against human MCF7 cells assessed as growth inhibition at 10 uM measured after 48 hrs by MTT assay relative to control; assay type: functional; details: MCF7, 48 h, read-out: GI
MIA PaCa-2 [2] = assay: Cytotoxicity against human MIAPaCa2 cells assessed as growth inhibition at 10 uM measured after 48 hrs by MTT assay relative to control; assay type: functional; details: MIA PaCa-2, 48 h, read-out: GI
A549 [3] = assay: Cytotoxicity against human A549 cells assessed as growth inhibition at 10 uM measured after 48 hrs by MTT assay relative to control; assay type: functional; details: A549, 48 h, read-out: GI
HepG2 [4] = assay: Cytotoxicity against human HepG2 cells assessed as growth inhibition at 10 uM measured after 48 hrs by MTT assay relative to control; assay type: functional; details: HepG2, 48 h, read-out: GI
[5] = Cytotoxicity against human FR2 cells assessed as growth inhibition at 10 uM measured after 48 hrs by MTT assay relative to control; assay type: cell-based; details: FR2 cells, read-out: GI
MCF7 [6] = assay: Cytotoxicity against human MCF7 cells measured after 48 hrs by MTT assay; assay type: functional, cell-based; details: MCF7, 48 h
MIA PaCa-2 [7] = assay: Cytotoxicity against human MIAPaCa2 cells measured after 48 hrs by MTT assay; assay type: functional, cell-based; details: MIA PaCa-2, 48 h
A549 [8] = assay: Cytotoxicity against human A549 cells measured after 48 hrs by MTT assay; assay type: functional, cell-based; details: A549, 48 h
HepG2 [9] = assay: Cytotoxicity against human HepG2 cells measured after 48 hrs by MTT assay; assay type: functional, cell-based; details: HepG2, 48 h
[10] = Cytotoxicity against human FR2 cells measured after 48 hrs by MTT assay; assay type: cell-based; details: FR2, 48 h
[11] = Selectivity index, ratio of IC50 for human FR2 cells to IC50 for human MCF7 cells; assay type: functional
[12] = Selectivity index, ratio of IC50 for human FR2 cells to IC50 for human MIAPaCa2 cells; assay type: functional
MIA PaCa-2 [13] = assay: Cell cycle arrest in human MIAPaCa2 cells assessed as apoptotic cells at 10 uM measured after 24 hrs by propidium iodide staining based flow cytometric analysis (reference value: 1%); assay type: functional
MIA PaCa-2 [14] = assay: Cell cycle arrest in human MIAPaCa2 cells assessed as accumulation at G1 phase at 10 uM measured after 24 hrs by propidium iodide staining based flow cytometric analysis (reference value: 59%); assay type: functional
MIA PaCa-2 [15] = assay: Cell cycle arrest in human MIAPaCa2 cells assessed as accumulation at G2 phase at 10 uM measured after 24 hrs by propidium iodide staining based flow cytometric analysis (reference value: 5%); assay type: functional
MIA PaCa-2 [16] = assay: Cell cycle arrest in human MIAPaCa2 cells assessed as accumulation at S phase at 10 uM measured after 24 hrs by propidium iodide staining based flow cytometric analysis (reference value: 36%); assay type: functional
MIA PaCa-2 [17] = assay: Cell cycle arrest in human MIAPaCa2 cells assessed as apoptotic cells at 30 uM measured after 24 hrs by propidium iodide staining based flow cytometric analysis (reference value: 1%); assay type: functional
MIA PaCa-2 [18] = assay: Cell cycle arrest in human MIAPaCa2 cells assessed as accumulation at G1 phase at 30 uM measured after 24 hrs by propidium iodide staining based flow cytometric analysis (reference value: 59%); assay type: functional
MIA PaCa-2 [19] = assay: Cell cycle arrest in human MIAPaCa2 cells assessed as accumulation at G2 phase at 30 uM measured after 24 hrs by propidium iodide staining based flow cytometric analysis (reference value: 5%); assay type: functional
MIA PaCa-2 [20] = assay: Cell cycle arrest in human MIAPaCa2 cells assessed as accumulation at S phase at 30 uM measured after 24 hrs by propidium iodide staining based flow cytometric analysis (reference value: 36%); assay type: functional
MIA PaCa-2 [21] = assay: Cell cycle arrest in human MIAPaCa2 cells assessed as apoptotic cells at 50 uM measured after 24 hrs by propidium iodide staining based flow cytometric analysis (reference value: 1%); assay type: functional
MIA PaCa-2 [22] = assay: Cell cycle arrest in human MIAPaCa2 cells assessed as accumulation at G1 phase at 50 uM measured after 24 hrs by propidium iodide staining based flow cytometric analysis (reference value: 59%); assay type: functional
MIA PaCa-2 [23] = assay: Cell cycle arrest in human MIAPaCa2 cells assessed as accumulation at G2 phase at 50 uM measured after 24 hrs by propidium iodide staining based flow cytometric analysis (reference value: 5%); assay type: functional
MIA PaCa-2 [24] = assay: Cell cycle arrest in human MIAPaCa2 cells assessed as accumulation at S phase at 50 uM measured after 24 hrs by propidium iodide staining based flow cytometric analysis (reference value: 36%); assay type: functional
MIA PaCa-2 [25] = assay: Cell cycle arrest in human MIAPaCa2 cells assessed as apoptotic cells measured after 24 hrs by propidium iodide staining based flow cytometric analysis; assay type: functional
MIA PaCa-2 [26] = assay: Induction of mitochondrial membrane depolarization in human MIAPaCa2 cells measured after 24 hrs by […] staining based flow cytometric analysis; assay type: functional, cell-based
MIA PaCa-2 [27] = assay: Induction of mitochondrial membrane depolarization in human MIAPaCa2 cells at 10 uM measured after 24 hrs by […] staining flow cytometric analysis (reference value: 2%); assay type: functional
MIA PaCa-2 [28] = assay: Induction of mitochondrial membrane depolarization in human MIAPaCa2 cells at 30 uM measured after 24 hrs by […] staining flow cytometric analysis (reference value: 2%); assay type: functional
MIA PaCa-2 [29] = assay: Induction of mitochondrial membrane depolarization in human MIAPaCa2 cells at 50 uM measured after 24 hrs by […] staining flow cytometric analysis (reference value: 2%); assay type: functional
MIA PaCa-2 [30] = assay: Induction of apoptosis in human MIAPaCa2 cells assessed as activation of procaspase-9 measured after 24 hrs by Western blot analysis; assay type: functional, cell-based
MIA PaCa-2 [31] = assay: Induction of apoptosis in human MIAPaCa2 cells assessed as activation of procaspase-8 measured after 24 hrs by Western blot analysis; assay type: functional, cell-based
MIA PaCa-2 [32] = assay: Induction of apoptosis in human MIAPaCa2 cells assessed as increase in casapase-3 cleavage measured after 24 hrs by Western blot analysis; assay type: functional, cell-based
MIA PaCa-2 [33] = assay: Induction of apoptosis in human MIAPaCa2 cells assessed as increase in PARP-1 cleavage measured after 24 hrs by Western blot analysis; assay type: functional, cell-based

SMILES: COc1ccc(C(=O)/C=C/c2ccc(OCc3cn(Cc4ccccc4)nn3)cc2)cc1
- inhibition of growth at 10 µM (MCF7 [1]): 70%
- inhibition of growth at 10 µM (MIA PaCa-2 [2]): 68%
- inhibition of growth at 10 µM (A549 [3]): 44%
- inhibition of growth at 10 µM (HepG2 [4]): 51%
- inhibition at 48 h, 10 µM [5]: 6%
- IC50 (MCF7 [6]): 5 µM
- IC50 (MIA PaCa-2 [7]): 4 µM
- IC50 (A549 [8]): 11 µM
- IC50 (HepG2 [9]): 9 µM
- IC50 [10]: > 100 µM
- Ratio IC50 [11]: >20
- Ratio IC50 [12]: 25
- Activity (MIA PaCa-2 [13]): 2%
- Activity (MIA PaCa-2 [14]): 36%
- Activity (MIA PaCa-2 [15]): 11%
- Activity (MIA PaCa-2 [16]): 53%
- Activity (MIA PaCa-2 [17]): 6%
- Activity (MIA PaCa-2 [18]): 52%
- Activity (MIA PaCa-2 [19]): 14%
- Activity (MIA PaCa-2 [20]): 44%
- Activity (MIA PaCa-2 [21]): 11%
- Activity (MIA PaCa-2 [22]): 41%
- Activity (MIA PaCa-2 [23]): 8%
- Activity (MIA PaCa-2 [24]): 51%
- Activity (MIA PaCa-2 [25]): Dose-dependent effect
- Activity (MIA PaCa-2 [26]): Dose-dependent effect
- Activity (MIA PaCa-2 [27]): 4%
- Activity (MIA PaCa-2 [28]): 8%
- Activity (MIA PaCa-2 [29]): 11%
- Activity (MIA PaCa-2 [30]): Dose-dependent effect
- Activity (MIA PaCa-2 [31]): Dose-dependent effect
- Activity (MIA PaCa-2 [32]): Dose-dependent effect
- Activity (MIA PaCa-2 [33]): Dose-dependent effect
